Laboratory results as given in patent US10787436B2, “Inhibitors of cyclin-dependent kinase 7 (CDK7)” (Dana-Farber Cancer Institute, Inc., priority 2012, dated 2020).
pEC50, pIC50: −log10 of the molar value. Read-outs that look alike come from different tables or passages of the source.

How the values were obtained:
THP-1 = test: Proliferation assay, CellTiter-Glo, 72 hour; format: cell-based; conditions: blood cancer cell line, read-out: Inhibition of proliferation, THP-1
[1] = molecular target: CDK7 (recombinant CAK complex) (Homo sapiens (Human), UniProt P50613); test: In vitro kinase assay with recombinant CAK complex, with and without pre-incubation; format: biochemical; conditions: 25 μM ATP, 45 minutes at 30° C.
Chain of CDK7 (recombinant CAK complex) (P50613 whole entry): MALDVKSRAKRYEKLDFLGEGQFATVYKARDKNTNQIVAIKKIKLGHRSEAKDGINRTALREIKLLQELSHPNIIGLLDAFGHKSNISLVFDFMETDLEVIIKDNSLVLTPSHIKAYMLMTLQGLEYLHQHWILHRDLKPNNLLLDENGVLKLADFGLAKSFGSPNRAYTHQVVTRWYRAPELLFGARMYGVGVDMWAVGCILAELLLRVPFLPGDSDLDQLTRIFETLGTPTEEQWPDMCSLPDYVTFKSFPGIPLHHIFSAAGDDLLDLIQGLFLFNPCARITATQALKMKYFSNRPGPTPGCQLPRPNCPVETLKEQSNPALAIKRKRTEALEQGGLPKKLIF
Chain of CDK7 (recombinant CAK complex) (P51946 whole entry partner): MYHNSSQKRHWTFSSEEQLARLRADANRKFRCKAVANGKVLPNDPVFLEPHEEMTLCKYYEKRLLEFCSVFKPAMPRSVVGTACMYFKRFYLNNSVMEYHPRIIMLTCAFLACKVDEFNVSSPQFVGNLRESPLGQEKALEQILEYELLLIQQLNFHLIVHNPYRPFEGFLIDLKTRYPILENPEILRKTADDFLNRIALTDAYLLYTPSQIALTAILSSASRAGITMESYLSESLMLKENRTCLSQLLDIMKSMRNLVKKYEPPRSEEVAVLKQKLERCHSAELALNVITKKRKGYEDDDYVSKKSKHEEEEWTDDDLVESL
Chain of CDK7 (recombinant CAK complex) (P51948 whole entry partner): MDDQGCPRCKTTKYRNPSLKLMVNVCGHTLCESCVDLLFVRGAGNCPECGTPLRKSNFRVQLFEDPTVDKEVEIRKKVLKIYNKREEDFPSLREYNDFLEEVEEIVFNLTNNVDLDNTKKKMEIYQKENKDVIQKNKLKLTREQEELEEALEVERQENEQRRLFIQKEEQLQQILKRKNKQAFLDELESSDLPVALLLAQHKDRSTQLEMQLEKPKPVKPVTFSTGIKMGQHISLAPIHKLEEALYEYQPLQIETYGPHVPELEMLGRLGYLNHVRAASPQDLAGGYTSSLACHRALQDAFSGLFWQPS
Description: Cellular lysates were then probed with antibodies recognizing the Ser-2, Ser-5, and Ser-7 CTD phosphoepitopes. […] At each time point cells were lysed, and the cellular lysates were probed using antibodies as described herein. […] Cells were allowed to grow in medium without inhibitor for 0 to 6 hours. At each time point cells were lysed, and the cellular lysates were probed using antibodies as described herein. […] The kinase reaction was then allowed to proceed for 45 minutes at 30° C.
In vitro kinase assays with immunoprecipitated proteins (or recombinant CAK complexes) were performed as follows. Kinase reactions were performed in 25 μL of final volume of reaction buffer (50 mM Hepes, pH 7.5, 150 mM NaCl, 10 mM MgCl2, 5% glycerol, 25 μM ATP, and 10 μCi of [γ-32P]ATP). Each reaction contained 1 μg of RNAP II. Incubation was at 30° C. for 30-45 min. Reactions were terminated by addition of 5 μL of 5×SDS-PAGE sample buffer and incubated at 95° C. for 5 min. Reactions were analyzed by SDS-PAGE, and the dried gel was exposed to film or PhosphorImager plate.
Covalent kinase inhibitors have several characteristics that functionally differentiate themselves from their reversible counterparts. […] Washout of compound I-23R, following a 4-hour administration led to the recovery of RNAP II CTD phosphorylation within 1 hour (FIG. 2C). […]

hTERT-HME1 = test: Proliferation assay, CellTiter-Glo, 72 hour; format: cell-based; conditions: immortalized normal mammary epithelial cell line, read-out: Inhibition of proliferation, hTERT-HME1
[2] = test system: patient-derived chronic lymphocytic leukemia (CLL) isolates; test: Cell death of patient-derived CLL isolates, Annexin V staining, 24 hour; format: cell-based, human; conditions: read-out: Pro-death signaling, average EC50 values
Description: (§1) Clinical isolates of CLL were cultured with compounds of Formula (I) or flavopiridol and assessed for cell death after a 24 hour time course by Annexin V staining. […] Anti-proliferative effect was measured using cell titer glo analysis.
PBMCs freshly isolated from peripheral blood are seeded in 24 well plates at a volume of 0.5 ml and a concentration of 2×10^6 cells/ml. Compounds and controls are added to respective wells in a total volume of 2.5 μl. Plates are mixed gently and incubated approximately 24 hours at 37° C., 5% CO2. Apoptosis was measured in all cells from each well using the Annexin V: FITC Apoptosis Detection Kit I (BD Biosciences). Normalized % death was calculated as follows: [(% Dead Drug−% Dead DMSO)/(100%−% Dead DMSO)]×100

Jurkat = Jurkat (proliferation, CellTiter-Glo); format: cell-based; conditions: read-out: Calculated IC50, Jurkat
MNNG-HOS Cl#5 = test: Proliferation assay, CellTiter-Glo, 72 hour; format: cell-based; conditions: osteosarcoma cell line, read-out: Inhibition of proliferation, MNNG-HOS Cl#5
[3] = test system: retinal pigment epithelial (RPE1) cells; test: Anti-proliferative assay, cell titer glo, 72 hours; format: cell-based, human
Description: (§2) At indicated time points, cellular lysates were harvested at the indicated times points and immunoblotted for the indicated proteins. […] Anti-proliferative effects were determined using cell titer glo analysis. […] Anti-proliferative effects were determined using alamarBlue® analysis. […] Anti-proliferative effects were determined using cell titer glo analysis. […] Dose: i.v. 1 mg/kg and p.o. 10 mg/kg.
(§3) Proliferation assays were conducted over a 48-72 hour time period (as noted). […] Cancer cell line profiling was performed over a 72 time period using Alamar Blue reagent.
CDK7 inhibitors display strong antiproflierative effects in leukemia and lymphoma cancer cells. However, a better definition of the breadth of their therapeutic potential in other cell types has not been reported. […] The rationale for examining such a large panel of human cancer cell lines is based on the fact that there is substantial genetic heterogeneity among human tumor cells, even with the same histological origins. In general, the data reveal a bimodal distribution with cell lines displaying exquisite sensitivity or apparent complete insensitivity to the compound.

[4] = test system: multiple myeloma cell lines; test: Anti-proliferative effect in multiple myeloma cell lines with or without stromal cells, cell titer glo, 48-hour; format: cell-based; conditions: 48-hour treatment
Description: as §1, §3

[5] = test system: RNAP II CTD phosphorylation; test: RNAP II CTD phosphorylation immunoblot in Loucy cells (dose response, time course, washout); format: cell-based; conditions: for pIC50: 4 hours
Description: Following the treatment, the cells were washed 2-fold with PBS. Fresh medium containing no inhibitors were added back to the cells. The cells were lysed at indicated time points, and the lysates were probed for RNAP II CTD phosphorylation.
CDK7 exerts its regulatory control of transcription largely by phosphorylating RNAP II CTD, which promotes active transcription. […] Reduction of Ser-5 phosphorylation was seen only at higher concentrations.
Covalent kinase inhibitors have several characteristics that functionally differentiate themselves from their reversible counterparts. […] Washout of compound I-23R, following a 4-hour administration led to the recovery of RNAP II CTD phosphorylation within 1 hour (FIG. 2C). […] This phenomenon was also visible using in vitro kinase reactions comparing pre-incubation of compound I-23 with compound I-23 introduced concurrently with ATP.

BCL-XL = test: Immunoblot of BCL-2 family proteins in Loucy cells; format: cell-based; conditions: 12 to 48 hours
Description: as §2
(§4) Consistent with its covalent inhibitory mechanism, similar results were seen over the same time span following washout (FIGS. 6A to 6B).

MCL-1 protein = test: Immunoblot of BCL-2 family proteins in Loucy cells; format: cell-based; conditions: after 12 hours
Description: as §2, §4

Hs822T = test: Proliferation assay, CellTiter-Glo, 72 hour; format: cell-based; conditions: Ewing's sarcoma cell line, read-out: Inhibition of proliferation, Hs822T
MDA-MB231 = test: Proliferation assay, CellTiter-Glo, 72 hour; format: cell-based; conditions: breast cancer cell line, read-out: Inhibition of proliferation, MDA-MB231
CDK1/cyclin B = CDK1/cyclin B (Homo sapiens (Human), UniProt P06493); test: Life Technologies Z'-Lyte kinase assay, CDK1; format: biochemical; conditions: read-out: Calculated IC50, CDK1/cyclin B
Chain of CDK1/cyclin B (P06493 whole entry): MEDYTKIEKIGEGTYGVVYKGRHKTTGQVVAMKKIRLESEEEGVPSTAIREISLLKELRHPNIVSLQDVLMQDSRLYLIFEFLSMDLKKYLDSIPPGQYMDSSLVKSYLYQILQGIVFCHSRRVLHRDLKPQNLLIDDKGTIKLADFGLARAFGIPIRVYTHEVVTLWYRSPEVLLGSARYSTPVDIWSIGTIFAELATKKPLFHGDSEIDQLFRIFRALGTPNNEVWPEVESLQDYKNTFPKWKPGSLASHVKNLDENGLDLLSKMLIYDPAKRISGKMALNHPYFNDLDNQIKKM
Chain of CDK1/cyclin B (P14635 whole entry partner): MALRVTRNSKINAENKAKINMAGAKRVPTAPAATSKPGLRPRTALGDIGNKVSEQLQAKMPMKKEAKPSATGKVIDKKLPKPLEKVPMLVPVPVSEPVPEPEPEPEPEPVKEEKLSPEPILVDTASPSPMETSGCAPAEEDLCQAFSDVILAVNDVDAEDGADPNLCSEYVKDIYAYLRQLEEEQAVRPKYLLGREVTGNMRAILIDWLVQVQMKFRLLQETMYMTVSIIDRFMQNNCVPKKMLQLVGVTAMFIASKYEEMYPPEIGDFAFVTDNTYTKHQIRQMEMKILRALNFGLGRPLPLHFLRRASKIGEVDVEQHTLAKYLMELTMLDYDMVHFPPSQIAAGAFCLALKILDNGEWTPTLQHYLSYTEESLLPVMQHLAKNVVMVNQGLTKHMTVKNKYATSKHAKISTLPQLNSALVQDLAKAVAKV

SMILES: CN(C)C/C=C/C(=O)Nc1ccc(C(=O)Nc2cccc(Nc3ncc(Cl)c(-c4c[nH]c5ccccc45)n3)c2)cc1 [Formula I-23]
- pIC50 (THP-1): > 6.30
- Effect of pre-incubation with recombinant CAK complex prior to addition of ATP [1]: dramatic increase in CDK7 inhibitory activity
- pIC50 (hTERT-HME1): > 6.30
- pEC50 [2]: > 6.70
- pIC50 (Jurkat): > 7.00
- pIC50 (MNNG-HOS Cl#5): 5.30 to 6.30
- Sensitivity of untransformed RPE1 cells [3]: largely resistant
- Anti-proliferative activity in MM cell lines [4]: highly effective anti-proliferative activity
- pIC50 ([5]; read-out: Cellular IC50 for RNAP II CTD Ser-2 phosphorylation): ~7.70
- pIC50 ([5]; read-out: Cellular IC50 for RNAP II CTD Ser-7 phosphorylation): ~8.40
- Time to complete inhibition of target (inactivation of CDK7, RNAP II CTD phosphorylation) ([5]; treated 0 to 4 hours): 3 to 4 h
- Recovery of RNAP II CTD phosphorylation after inhibitor washout ([5]; washout following a 4-hour administration): did not restore normal CTD phosphorylation levels
- Reduction of BCL-XL protein levels (BCL-XL): not reduced even at higher concentrations
- Concentration sufficient to elicit a reduction in MCL-1 protein levels (MCL-1 protein): ≤ 100 nM
- pIC50 (Hs822T): > 6.30
- pIC50 (MDA-MB231): > 6.30
- pIC50 (CDK1/cyclin B): 6.00 to 7.00
